{
  "source": "patent US5632983A",
  "about": "“Method for treating secondary immunodeficiency” (University of South Florida, priority 1994, dated 1997)",
  "key": {"[1]": {"test": "Thymus weight in hydrocortisone-treated aged mice", "type": "in vivo", "details": "NCM 50 U of IL-2 per mouse/day; Thymosin α1 5 or 20 microgram/mouse/day (pooled); i.p. 5 days, day 8", "experimental": "(§1) Female BALB/c (Life Science, St. Petersburg, Fla.) aged retired breeder mice (8-9 months) whose thymuses had begun to involute were employed in in vivo tests. Mice were weight matched and randomly pooled in groups of five. Animals were fed standard laboratory diets with drinking water ad lib. All mice, with exception of a control group, were treated intraperitoneally (i.p.) with hydrocortisone (5 mg/mouse in 0.1 ml 0.9% sodium chloride) for two consecutive days to induce a chemical thymectomy and reduction of spleen weight.\n(§2) Each treatment group had five (5) animals and each experiment was repeated 2-5 times. Treatment was initiated intraperitoneally (i.p.), on Day 3 and continued once per day for a total of five (5) days. Treatment groups were injected with one of the following in vivo treatments as indicated in the text:\n(§3) On day 8, the mice were weighed, sacrificed by cervical dislocation, and their spleens and thymuses removed and weighed. The organs were minced, the residual erythrocytes were lysed using ammonium chloride (Mishell and Shiigi, \"Selected Methods in Cellular Immunology\", 1981), and the cells counted.\n(§4) Animals, hydrocortisone treatment, and experimental injections were as described in the general methods. The NCM was injected at 50 U of IL-2 per mouse/day. The Thymosin α1 (T alpha-1 or Tα1) was injected at 5 or 20 microgram/mouse/day."}, "[2]": {"test_system": "thymocytes", "test": "Proliferative response (3H-thymidine) of thymocytes in vitro after in vivo treatment, hydrocortisone induced thymic involution in aged mice", "experimental": "(§5) The model of hydrocortisone induced thymic involution in aged mice was used unless otherwise indicated (Hadden et al., 1992b).\nas §1, §2, §3\n(§6) The proliferative response of the cells to various substances was then determined. A sample of cells was prepared for cell culture at 37° C., 5% CO2 in RPMI 1640 medium with 5% fetal bovine serum, penicillin (100 U/ml), streptomycin (100 μg/ml) and 2-mercaptoethanol (2×10^-5 M). The cells were plated in 0.2 ml microwell plates in quadruplicate at a concentration of 1.5×10^6 /ml and incubated for 72 hours with one of the following as indicated in the text:\n(§7) To measure DNA synthesis, the culture was terminated with an 18 hours pulse of tritiated thymidine (^3 H-Thymidine; NEN, Boston, Mass.; specific activity 6.7 Ci/mM), harvested with a multiple automatic sample harvester and processed for liquid scintillation counting. The results were expressed as arithmetic mean of cpm from four samples. In order to simplify the representation of data obtained with different animals, the results were pooled and calculated together and in some cases expressed as a ratio to control±SEM.\n(§8) In a series of experiments, mice with involuted thymuses were treated in vivo with NCM, Thymosin α1, Thymosin fraction V, combinations of these factors, and saline or media controls. The spleens and thymuses were removed, the cells were tested for cell proliferation responses to stimulation in vitro with the interleukins (IL1, IL2, NCM) or with mitogens (PHA; ConA)."}, "[3]": {"test_system": "splenocytes", "test": "Proliferative response (3H-thymidine) of splenocytes in vitro after in vivo treatment, hydrocortisone induced thymic involution in aged mice", "experimental": "as §5, §1, §2, §3, §6, §7, §8"}, "[4]": {"test": "Spleen weight in hydrocortisone-treated aged mice", "type": "in vivo", "details": "NCM 50 U of IL-2 per mouse/day; Thymosin α1 5 or 20 microgram/mouse/day (pooled); i.p. 5 days, day 8", "experimental": "as §1, §2, §3, §4"}},
  "note": "No end group written: not given here.",
  "data": [
    {"substance": "Thymosin α1 (SDAAVDTSSEITTKDLKEKKEVVEEAEN; not fully specified; ends and bridges not checked; UniProt P01252 2-29, looked up) [28 amino acid peptide initially extracted from bovine thymus and later synthesized]", "values": [
      {"measurement": "THYMUS WEIGHT (mg) Mean ± S.E.M.", "setting": "[1]", "result": "25.75 ± 4.45", "unit": "mg"},
      {"measurement": "dose of optimal effects on thymocyte responses to interleukins and mitogen", "setting": "[2]; FIG. 1, dose response 0.2 to 20 μg/animal/day in vivo", "result": 5, "unit": "μg/mouse"},
      {"measurement": "thymocyte responses in vitro to media, rIL-1, rIL-2 and NCM", "setting": "[2]; FIG. 3, in vivo i.p. once per day for 5 days, Thymosin α1 5 μg/mouse, NCM 50 units IL-2 equivalence", "result": "increased many of the responses"},
      {"measurement": "thymocyte responses to mitogens PHA and ConA", "setting": "[2]; FIG. 5, in vivo treatments as in FIG. 3", "result": "significantly augmented both responses"},
      {"measurement": "thymocyte responses to rIL-1, IL-2, NCM or ConA", "setting": "[2]; FIGS. 7 and 9, ratio to saline treated control, Thymosin α1 5 μg/mouse/day, TF5 100 μg/mouse/day, NCM 50 units", "result": "augmented all of the responses"},
      {"measurement": "dose of optimal effects on splenocyte responses to interleukins and mitogen", "setting": "[3]; FIG. 2, dose response 0.2 to 20 μg/animal/day in vivo", "result": 5, "unit": "μg/mouse"},
      {"measurement": "splenocyte responses in vitro to media, rIL-1, rIL-2 and NCM", "setting": "[3]; FIG. 4, in vivo i.p. once per day for 5 days, Thymosin α1 5 μg/mouse, NCM 50 units IL-2 equivalence", "result": "increased many of the responses"},
      {"measurement": "splenocyte responses to mitogens PHA and ConA", "setting": "[3]; FIG. 6, in vivo treatments as in FIG. 3", "result": "significantly augmented both responses"},
      {"measurement": "splenocyte responses to rIL-1, IL-2, NCM or ConA", "setting": "[3]; FIGS. 8 and 10, ratio to saline treated control, Thymosin α1 5 μg/mouse, TF5 100 μg/mouse, NCM 50 units", "result": "augmented all of the responses"},
      {"measurement": "SPLEEN WEIGHT (mg) Mean ± S.E.M.", "setting": "[4]", "result": "127.66 ± 5.78", "unit": "mg"}
    ]}
  ]
}
